This is an account of results in ChEMBL document CHEMBL3870316, “Design, synthesis and structure-activity relationships of novel 4-phenoxyquinoline derivatives containing 1,2,4-triazolone moiety as c-Met kinase inhibitors” (Eur J Med Chem, 2016).

In general, IC50 refers to the point on the concentration scale where inhibition reaches its midpoint.

Experiment [1] is described as follows: Cytotoxicity against c-Met over-expressed human MKN45 cells assessed as cell growth inhibition after 72 hrs by MTT assay. To be noted: MKN-45, 72 h. (Tetrazolium dyes change colour on reduction, which living cells bring about.)
The nature of experiment [2]: Cytotoxicity against c-Met over-expressed human HT-29 cells assessed as cell growth inhibition after 72 hrs by MTT assay. The settings on record: HT-29, 72 h.
Experiment [3] can be described thus: Cytotoxicity against c-Met over-expressed human H460 cells assessed as cell growth inhibition after 72 hrs by MTT assay. To be noted: NCI-H460, 72 h.
The nature of experiment [4]: Cytotoxicity against c-Met over-expressed human A549 cells assessed as cell growth inhibition after 72 hrs by MTT assay. The settings on record: A549, 72 h.

With `CCn1c(C(=O)Nc2ccc(Oc3ccnc4cc(OCCCN5CCCCC5)c(OC)cc34)c(F)c2)nn(-c2ccccc2OC(F)(F)F)c1=O`, the IC50 in experiment [1] stood at 0.12 µM; in experiment [2] it was 0.19 µM; in experiment [3] it was 0.25 µM; in experiment [4], 0.19 µM.
Take `COc1cc2c(Oc3ccc(NC(=O)c4nn(-c5ccccc5Cl)c(=O)n4C4CC4)cc3F)ccnc2cc1OCCCN1CCN(C)CC1`: the IC50 stood at 0.063 µM in experiment [1], 0.19 µM in experiment [2], 0.23 µM in experiment [3] and 0.13 µM in experiment [4].
For `COc1cc2c(Oc3ccc(NC(=O)c4nn(-c5ccccc5)c(=O)n4C)cc3F)ccnc2cc1OCCCN1CCC(C)CC1`, in that order: 0.47 µM, 0.67 µM, 0.83 µM and 0.38 µM.
For `COc1cc2c(Oc3ccc(NC(=O)c4nn(-c5ccccc5OC(F)(F)F)c(=O)n4C)cc3F)ccnc2cc1OCCCN1CCCCC1`, in that order: 0.08 µM, 0.21 µM, 0.29 µM and 0.13 µM.
On the same counts, the results for `COc1cc2c(Oc3ccc(NC(=O)c4nn(-c5ccc(Cl)cc5Cl)c(=O)n4C)cc3F)ccnc2cc1OCCCN1CCN(C)CC1` are 0.18 µM, 0.3 µM, 0.24 µM and 0.25 µM.
For the compound `COc1ccc(-n2nc(C(=O)Nc3ccc(Oc4ccnc5cc(OCCCN6CCCCC6)c(OC)cc45)c(F)c3)n(C)c2=O)cc1`, the IC50 in experiment [1] was determined as 0.88 µM; in experiment [2], 3.12 µM; in experiment [3] it was 2.84 µM; in experiment [4] it was 0.96 µM.
On the same counts, the results for `COc1cc2c(Oc3ccc(NC(=O)c4nn(-c5ccccc5Cl)c(=O)n4C4CC4)cc3F)ccnc2cc1OCCCN1CCC(C)CC1` are 0.11 µM, 0.14 µM, 0.16 µM and 0.2 µM.
On the same counts, the results for `CCn1c(C(=O)Nc2ccc(Oc3ccnc4cc(OCCCN5CCC(C)CC5)c(OC)cc34)c(F)c2)nn(-c2ccccc2OC(F)(F)F)c1=O` are 0.087 µM, 0.16 µM, 0.2 µM and 0.22 µM.
In the case of `COc1cc2c(Oc3ccc(NC(=O)c4nn(-c5ccccc5OC(F)(F)F)c(=O)n4C)cc3F)ccnc2cc1OCCCN1CCC(C)CC1`, the IC50 is 0.095 µM in experiment [1], 0.19 µM in experiment [2], 0.35 µM in experiment [3] and 0.18 µM in experiment [4].
On the same counts, the results for `CCn1c(C(=O)Nc2ccc(Oc3ccnc4cc(OCCCN5CCN(C)CC5)c(OC)cc34)c(F)c2)nn(-c2ccccc2OC(F)(F)F)c1=O` are 0.057 µM, 0.15 µM, 0.25 µM and 0.2 µM.
Regarding `COc1cc2c(Oc3ccc(NC(=O)c4nn(-c5ccccc5Cl)c(=O)n4C)cc3F)ccnc2cc1OCCCN1CCC(C)CC1`, the IC50 amounted to 0.35 µM in experiment [1], 0.15 µM in experiment [2], 0.2 µM in experiment [3] and 0.24 µM in experiment [4].
For the compound `COc1cc2c(Oc3ccc(NC(=O)c4nn(-c5ccccc5F)c(=O)n4C)cc3F)ccnc2cc1OCCCN1CCCCC1`, the IC50 in experiment [1] came to 0.07 µM; in experiment [2], 0.16 µM; in experiment [3], 0.26 µM; in experiment [4] it was 0.22 µM.
As to `COc1cc2c(Oc3ccc(NC(=O)c4nn(-c5ccc(OC(F)F)cc5)c(=O)n4C)cc3F)ccnc2cc1OCCCN1CCN(C)CC1`, the IC50 was found to be 0.14 µM in experiment [1], 0.22 µM in experiment [2], 0.29 µM in experiment [3] and 0.29 µM in experiment [4].
`COc1cc2c(Oc3ccc(NC(=O)c4nn(-c5ccccc5)c(=O)n4C)cc3F)ccnc2cc1OCCCN1CCCCC1`: the IC50 in experiment [1] was determined as 0.46 µM; in experiment [2], 0.87 µM; in experiment [3] it was 0.78 µM; in experiment [4], 0.45 µM.
For `COc1cc2c(Oc3ccc(NC(=O)c4nn(-c5ccccc5OC(F)(F)F)c(=O)n4C4CC4)cc3F)ccnc2cc1OCCCN1CCC(C)CC1`, in that order: 0.1 µM, 0.11 µM, 0.24 µM and 0.12 µM.
Take `COc1cc2c(Oc3ccc(NC(=O)c4nn(-c5ccc(OC(F)F)cc5)c(=O)n4C)cc3F)ccnc2cc1OCCCN1CCC(C)CC1`: the IC50 in experiment [1] came to 0.22 µM; in experiment [2] it was 0.19 µM; in experiment [3], 0.25 µM; in experiment [4], 0.12 µM.
On the same counts, the results for `COc1cc2c(Oc3ccc(NC(=O)c4nn(-c5c(C)cccc5C)c(=O)n4C)cc3F)ccnc2cc1OCCCN1CCC(C)CC1` are 2.23 µM, 2.68 µM, 3.22 µM and 4.55 µM.
On the same counts, the results for `COc1cc2c(Oc3ccc(NC(=O)c4nn(-c5ccccc5Cl)c(=O)n4C)cc3F)ccnc2cc1OCCCN1CCN(C)CC1` are 0.088 µM, 0.17 µM, 0.34 µM and 0.16 µM.
On the same counts, the results for `COc1cc2c(Oc3ccc(NC(=O)c4nn(-c5ccccc5OC(F)(F)F)c(=O)n4C4CC4)cc3F)ccnc2cc1OCCCN1CCN(C)CC1` are 0.061 µM, 0.09 µM, 0.18 µM and 0.11 µM.
As to `COc1cc2c(Oc3ccc(NC(=O)c4nn(-c5ccc(F)cc5)c(=O)n4C)cc3F)ccnc2cc1OCCCN1CCCCC1`, the IC50 in experiment [1] came to 0.4 µM; in experiment [2], 0.4 µM; in experiment [3], 0.58 µM; in experiment [4], 0.35 µM.
Consider `COc1cc2c(Oc3ccc(NC(=O)c4nn(-c5ccc(F)cc5)c(=O)n4C)cc3F)ccnc2cc1OCCCN1CCC(C)CC1`, for which the IC50 was 0.31 µM in experiment [1], 0.33 µM in experiment [2], 0.24 µM in experiment [3] and 0.41 µM in experiment [4].
On the same counts, the results for `COc1cc2c(Oc3ccc(NC(=O)c4nn(-c5cccc(F)c5)c(=O)n4C)cc3F)ccnc2cc1OCCCN1CCCCC1` are 0.33 µM, 0.43 µM, 0.35 µM and 0.38 µM.
On the same counts, the results for `COc1cc2c(Oc3ccc(NC(=O)c4nn(-c5ccc(Cl)cc5Cl)c(=O)n4C)cc3F)ccnc2cc1OCCCN1CCC(C)CC1` are 0.4 µM, 0.18 µM, 0.45 µM and 0.35 µM.
For `COc1cc2c(Oc3ccc(NC(=O)c4nn(-c5c(C)cccc5C)c(=O)n4C)cc3F)ccnc2cc1OCCCN1CCCCC1`, in that order: 1.85 µM, 1.7 µM, 3.01 µM and 2 µM.
For `COc1cc2c(Oc3ccc(NC(=O)c4nn(-c5ccc(F)cc5)c(=O)n4C)cc3F)ccnc2cc1OCCCN1CCOCC1`, the IC50 in experiment [1] amounted to 0.64 µM; in experiment [2], 1.23 µM; in experiment [3], 0.81 µM; in experiment [4] it was 0.4 µM.
On to `COc1cc2c(Oc3ccc(NC(=O)c4nn(-c5cccc(F)c5)c(=O)n4C)cc3F)ccnc2cc1OCCCN1CCN(C)CC1`, for which the IC50 worked out at 0.41 µM in experiment [1], 0.29 µM in experiment [2], 0.31 µM in experiment [3] and 0.28 µM in experiment [4].
On the same counts, the results for `COc1ccc(-n2nc(C(=O)Nc3ccc(Oc4ccnc5cc(OCCCN6CCC(C)CC6)c(OC)cc45)c(F)c3)n(C)c2=O)cc1` are 0.59 µM, 1.43 µM, 2.4 µM and 0.62 µM.
